Measured values reported in ChEMBL document CHEMBL1158593, “Structure-activity relationships in human toll-like receptor 7-active imidazoquinoline analogues” (J Med Chem, 2010).

target: T1, Toll-like receptor 7 (Homo sapiens, UniProt Q9NYK1)
T1 sequence (Q9NYK1 whole entry): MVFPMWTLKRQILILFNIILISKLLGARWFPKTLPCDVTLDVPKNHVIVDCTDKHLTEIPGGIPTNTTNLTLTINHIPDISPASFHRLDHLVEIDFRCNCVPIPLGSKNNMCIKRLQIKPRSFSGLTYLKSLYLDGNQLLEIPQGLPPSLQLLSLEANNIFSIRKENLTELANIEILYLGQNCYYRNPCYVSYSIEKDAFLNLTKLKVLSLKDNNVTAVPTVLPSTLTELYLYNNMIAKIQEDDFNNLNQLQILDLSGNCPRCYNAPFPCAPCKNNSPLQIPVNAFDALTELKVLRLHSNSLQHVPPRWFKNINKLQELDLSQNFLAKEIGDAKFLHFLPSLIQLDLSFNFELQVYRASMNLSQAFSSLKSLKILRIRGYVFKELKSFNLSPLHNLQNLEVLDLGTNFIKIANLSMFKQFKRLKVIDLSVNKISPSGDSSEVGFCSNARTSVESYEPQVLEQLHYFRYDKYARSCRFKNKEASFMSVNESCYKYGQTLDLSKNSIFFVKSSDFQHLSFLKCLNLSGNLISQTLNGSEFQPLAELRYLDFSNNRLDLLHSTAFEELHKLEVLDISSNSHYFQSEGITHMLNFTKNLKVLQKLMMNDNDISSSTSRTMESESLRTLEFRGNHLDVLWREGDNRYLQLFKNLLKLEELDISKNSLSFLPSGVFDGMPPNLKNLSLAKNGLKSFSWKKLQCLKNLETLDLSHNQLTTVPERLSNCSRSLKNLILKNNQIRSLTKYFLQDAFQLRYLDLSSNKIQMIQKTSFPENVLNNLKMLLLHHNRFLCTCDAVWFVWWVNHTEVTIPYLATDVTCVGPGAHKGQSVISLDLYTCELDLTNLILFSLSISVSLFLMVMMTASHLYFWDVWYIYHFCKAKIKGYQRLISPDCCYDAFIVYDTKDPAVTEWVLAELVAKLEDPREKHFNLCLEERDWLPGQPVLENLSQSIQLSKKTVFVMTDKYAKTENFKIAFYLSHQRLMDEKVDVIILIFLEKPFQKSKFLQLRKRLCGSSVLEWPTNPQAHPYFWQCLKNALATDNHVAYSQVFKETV
Description: Agonist activity at human TLR7 expressed in NF-kappaB-stimulated HEK293 cells assessed as induction of secreted alkaline phosphatase expression by reporter gene assay

**Q.** How did the EC50 turn out when `Cc1nc2c(N)nc3ccccc3c2n1Cc1ccccc1` was run?
**A.** The EC50 was 955 nM.

**Q.** How did the EC50 turn out when `CCCCc1nc2c(NO)nc3ccccc3c2n1Cc1ccccc1` was run?
**A.** The EC50 was 723 nM.

**Q.** How did the EC50 turn out when `CCCCc1nc2c(NN)nc3ccccc3c2n1Cc1ccccc1` was run?
**A.** Its EC50 is 873 nM.

**Q.** How did the EC50 turn out when `CCN(CC)Cc1nc2c(N)nc3ccccc3c2n1CC(C)(C)O` was run?
**A.** The EC50 was 7710 nM.

**Q.** With `CCCCCCc1nc2c(N)nc3ccccc3c2n1Cc1ccccc1` as the molecule, how does the EC50 read?
**A.** The EC50 was 479 nM.

**Q.** With `C=CCCc1nc2c(N)nc3ccccc3c2n1Cc1ccccc1` as the molecule, how does the EC50 read?
**A.** Its EC50 is 262 nM.

**Q.** `C#CCCc1nc2c(N)nc3ccccc3c2n1Cc1ccccc1` was tested. Which EC50 did it give?
**A.** Its EC50 is 209 nM.

**Q.** For `CCNCc1nc2c(N)nc3ccccc3c2n1Cc1ccccc1`, which EC50 is on record?
**A.** Its EC50 is 385 nM.

**Q.** How did the EC50 turn out when `CCCCCCCCCc1nc2c(N)nc3ccccc3c2n1Cc1ccccc1` was run?
**A.** The EC50 was 3350 nM.

**Q.** `CCc1nc2c(N)nc3ccccc3c2n1Cc1ccccc1` was tested. Which EC50 did it give?
**A.** The EC50 was 472 nM.

**Q.** `CCN(CCC#N)Cc1nc2c(N)nc3ccccc3c2n1CC(C)(C)O` was tested. Which EC50 did it give?
**A.** Its EC50 is 8390 nM.

**Q.** Which EC50 does the source give for `CCCc1nc2c(N)nc3ccccc3c2n1Cc1ccccc1` here?
**A.** Its EC50 is 647 nM.

**Q.** Which EC50 does the source give for `CCCCCCCc1nc2c(N)nc3ccccc3c2n1Cc1ccccc1` here?
**A.** Its EC50 is 822 nM.

**Q.** Which EC50 does the source give for `CCCCc1nc2c(N)nc3ccccc3c2n1Cc1ccccc1` here?
**A.** The EC50 was 59.1 nM.

**Q.** How did the EC50 turn out when `CCCCCc1nc2c(N)nc3ccccc3c2n1Cc1ccccc1` was run?
**A.** The EC50 was 91.5 nM.

**Q.** How did the EC50 turn out when `CC(C)Cn1cnc2c(N)nc3ccccc3c21` [IMIQUIMOD] was run?
**A.** The EC50 was 2120 nM.
